Laboratory results from ChEMBL document CHEMBL3098065, “Discovery of Pyridyl Bis(oxy)dibenzimidamide Derivatives as Selective Matriptase Inhibitors” (ACS Med Chem Lett, 2013).
≈ marks a conversion by molar mass, not a printed value.

Assays:
[1] = target: T1, Suppressor of tumorigenicity 14 protein (Homo sapiens, UniProt Q9Y5Y6); test: Inhibition of matriptase-SP1 (615 to 855) (unknown origin) expressed in Escherichia coli BL21(DE3) using Boc-Gln-Ala-Arg-7-amido-4-methyl coumarin hydrobromide as substrate by fluorescence assay
T1 sequence (Q9Y5Y6 whole entry): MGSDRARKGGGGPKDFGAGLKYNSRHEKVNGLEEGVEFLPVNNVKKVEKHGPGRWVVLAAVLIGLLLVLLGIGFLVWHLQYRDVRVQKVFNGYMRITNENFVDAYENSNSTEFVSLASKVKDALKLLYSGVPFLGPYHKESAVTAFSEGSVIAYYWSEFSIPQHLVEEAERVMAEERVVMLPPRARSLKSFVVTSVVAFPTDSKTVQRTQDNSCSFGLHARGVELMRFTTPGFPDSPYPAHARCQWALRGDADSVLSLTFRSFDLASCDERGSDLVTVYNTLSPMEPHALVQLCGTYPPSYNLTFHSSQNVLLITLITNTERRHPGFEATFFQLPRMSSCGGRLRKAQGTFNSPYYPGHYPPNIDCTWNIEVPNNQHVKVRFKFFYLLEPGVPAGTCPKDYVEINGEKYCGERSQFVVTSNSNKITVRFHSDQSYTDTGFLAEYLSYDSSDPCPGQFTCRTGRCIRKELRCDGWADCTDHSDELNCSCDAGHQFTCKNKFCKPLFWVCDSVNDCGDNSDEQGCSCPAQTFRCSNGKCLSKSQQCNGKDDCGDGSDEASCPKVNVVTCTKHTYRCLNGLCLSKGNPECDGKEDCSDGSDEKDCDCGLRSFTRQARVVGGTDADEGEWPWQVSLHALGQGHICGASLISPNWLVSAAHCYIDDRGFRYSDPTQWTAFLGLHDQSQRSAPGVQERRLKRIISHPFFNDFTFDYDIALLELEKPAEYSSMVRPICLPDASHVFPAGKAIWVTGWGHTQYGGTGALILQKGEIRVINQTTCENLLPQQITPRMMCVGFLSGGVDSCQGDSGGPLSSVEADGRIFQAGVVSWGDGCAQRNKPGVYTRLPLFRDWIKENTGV

[2] = target: Urokinase-type plasminogen activator (Homo sapiens, UniProt P00749); test: Inhibition of uPA (unknown origin) using L-PyroGlu-Gly-Arg-pNA.HCl as substrate
Coagulation factor X = Coagulation factor X (Homo sapiens, UniProt P00742); test: Inhibition of factor 10a (unknown origin) using CH3OCO-D-CHA-Gly-Arg-pNA.AcoH as substrate
Chain of Coagulation factor X (P00742 41-179 limits assumed): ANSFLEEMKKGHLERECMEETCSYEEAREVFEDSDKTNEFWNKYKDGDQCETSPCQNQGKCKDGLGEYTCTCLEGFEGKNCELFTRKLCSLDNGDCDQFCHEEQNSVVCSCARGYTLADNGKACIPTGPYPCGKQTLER
Chain of Coagulation factor X (P00742 235-488 limits assumed): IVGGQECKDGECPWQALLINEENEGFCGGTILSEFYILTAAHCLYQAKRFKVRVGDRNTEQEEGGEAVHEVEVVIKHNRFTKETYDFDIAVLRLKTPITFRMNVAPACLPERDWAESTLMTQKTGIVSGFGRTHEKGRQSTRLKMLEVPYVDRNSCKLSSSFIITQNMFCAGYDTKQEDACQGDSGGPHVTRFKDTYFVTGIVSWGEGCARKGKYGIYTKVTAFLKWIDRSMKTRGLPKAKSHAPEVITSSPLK

Prothrombin = Prothrombin (Homo sapiens, UniProt P00734); test: Inhibition of thrombin (unknown origin) by fluorescence assay
PC-3 [3] = test: Cytotoxicity against human PC3 cells at 10 uM after 72 hrs by calcein AM assay relative to control; format: functional
DU-145 [4] = test: Antiinvasive activity against human DU145 cells at 10 uM incubated overnight followed by fibronectin addition measured after 48 hrs by calcein AM assay relative to control; format: functional; settings: DU-145, 48 h
[5] = Kinetic aqueous solubility of the compound at pH 7.4 after 16 hrs by shake flask method; format: physicochemical; settings: read-out: Kinetic_solubility
PC-3 [6] = test: Antiinvasive activity against human PC3 cells at 10 uM incubated overnight followed by fibronectin and HGF addition measured after 48 hrs by calcein AM assay relative to control; format: functional; settings: PC-3, 48 h
DU-145 [7] = test: Antimigratory activity against human DU145 cells at 10 uM incubated overnight followed by fibronectin addition measured after 24 hrs by calcein AM assay relative to control; format: functional; settings: DU-145, 24 h
DU-145 [8] = test: Cytotoxicity against human DU145 cells at 10 uM after 72 hrs by calcein AM assay relative to control; format: functional
[9] = Metabolic stability in mouse liver microsomes assessed as compound remaining at 1 uM after 20 mins by LC-MS/MS analysis; format: ADME, Microsome; settings: read-out: Stability
PC-3 [10] = test: Antimigratory activity against human PC3 cells at 10 uM incubated overnight followed by fibronectin and HGF addition measured after 24 hrs by calcein AM assay relative to control; format: functional; settings: PC-3, 24 h
[11] = Metabolic stability in mouse liver microsomes assessed as compound remaining at 1 uM after 40 mins by LC-MS/MS analysis; format: ADME, Microsome; settings: read-out: Stability
Trypsin = Trypsin (Homo sapiens, UniProt P07477+P07478+P35030); test: Inhibition of trypsin (unknown origin) by fluorescence assay; format: protein assay

Row | Ki [1] | Ki [2] | Ki (Coagulation factor X) | Ki (Prothrombin) | solubility kinetic at 16 h [5] | remaining at 20 min, 1 µM [9] | remaining at 40 min, 1 µM [11] | Ki (Trypsin) | Structure (SMILES) | Activity (PC-3 [3]) | inhibition at 10 µM (DU-145 [4]) | inhibition at 10 µM (PC-3 [6]) | inhibition at 10 µM (DU-145 [7]) | Activity (DU-145 [8]) | inhibition at 10 µM (PC-3 [10])
1 | 600 nM | > 10000 nM | 2300 nM | 3600 nM | – | – | – | – | N=C(N)c1ccc(Oc2ccc(C(=O)NC3CCN(C(=O)CCN)CC3)c(Oc3ccc(C(=N)N)cc3)n2)cc1 | – | – | – | – | – | –
2 | 40 nM | > 10000 nM | 100 nM | 2900 nM | – | – | – | – | N=C(N)c1ccc(Oc2cc(C(=O)NC3CCN(CCCN)CC3)cc(Oc3ccc(C(=N)N)cc3)n2)cc1 | – | – | – | – | – | –
3 | 1200 nM | > 10000 nM | – | – | – | – | – | – | N=C(N)c1ccc(Oc2ccc(NS(=O)(=O)c3cc(F)cc(F)c3)c(Oc3ccc(C(=N)N)cc3)n2)cc1 | – | – | – | – | – | –
4 | 40 nM | > 10000 nM | 300 nM | 5800 nM | 191 µM (≈ 106 µg/mL) | 76.4% | 73.2% | 1300 nM | N=C(N)c1ccc(Oc2ccc(NS(=O)(=O)c3ccc4ccccc4c3)c(Oc3ccc(C(=N)N)cc3)n2)cc1 | 20% | 47% | 42% | 59% | 20% | 39%
5 | 9600 nM | – | – | 600 nM | – | – | – | 2800 nM | N=C(N)c1ccc(Oc2cccc(Oc3ccc(C(=N)N)cc3)n2)cc1 | – | – | – | – | – | –
6 | 400 nM | > 10000 nM | 300 nM | 2100 nM | – | – | – | 300 nM | N=C(N)c1ccc(Oc2ccc(C(=O)NCCCN)c(Oc3ccc(C(=N)N)cc3)n2)cc1 | – | – | – | – | – | –
7 | 500 nM | > 10000 nM | 600 nM | 3400 nM | – | – | – | 2000 nM | N=C(N)c1ccc(Oc2ccc(C(=O)N[C@H]3CC[C@H](N)CC3)c(Oc3ccc(C(=N)N)cc3)n2)cc1 | – | – | – | – | – | –
8 | 200 nM | > 10000 nM | 1500 nM | > 2500 nM | – | – | – | 3600 nM | N=C(N)c1ccc(Oc2ccc(C(=O)N3CCC(CCN)CC3)c(Oc3ccc(C(=N)N)cc3)n2)cc1 | – | – | – | – | – | –
9 | 40 nM | > 10000 nM | 400 nM | 2500 nM | 196 µM (≈ 95.6 µg/mL) | 100% | 95.6% | 2400 nM | N=C(N)c1ccc(Oc2cc(C(=O)N[C@H]3CC[C@H](N)CC3)cc(Oc3ccc(C(=N)N)cc3)n2)cc1 | 1% | 69% | 42% | 65% | 0% | 53%
10 | 100 nM | > 10000 nM | 200 nM | > 2500 nM | – | – | – | 2200 nM | N=C(N)c1ccc(Oc2cc(C(=O)N3CCC(CCN)CC3)cc(Oc3ccc(C(=N)N)cc3)n2)cc1 | – | – | – | – | – | –
11 | 2900 nM | > 10000 nM | 1200 nM | 4400 nM | – | – | – | 5500 nM | N=C(N)c1ccc(Oc2ccc(N)c(Oc3ccc(C(=N)N)cc3)n2)cc1 | – | – | – | – | – | –
12 | 200 nM | > 10000 nM | 300 nM | 4100 nM | 194 µM (≈ 101 µg/mL) | 89% | 86.5% | 1400 nM | N=C(N)c1ccc(Oc2ccc(NS(=O)(=O)c3ccc(F)cc3)c(Oc3ccc(C(=N)N)cc3)n2)cc1 | 0% | 61% | 60% | 69% | 0% | 65%
13 | 400000 nM | – | – | – | – | – | – | – | N=C(N)c1ccccc1 [BENZAMIDINE] | – | – | – | – | – | –
14 | 200 nM | > 10000 nM | – | – | – | – | – | – | N=C(N)c1ccc(Oc2ccc(NS(=O)(=O)c3cccc4cccnc34)c(Oc3ccc(C(=N)N)cc3)n2)cc1 | – | – | – | – | – | –
